Measurements from patent US9221872B2, “Peptides and peptidomimetics in combination uses and treatments for cancer patient subpopulations” (priority 2013, dated 2015).
Where a SMILES comes first, the peptide text is derived from it. Where no end group is shown, it is not given here. [ ]: non-standard residue; d: D form. dPhe(F5) = N[C@H](Cc1c(F)c(F)c(F)c(F)c1F)C(=O)O; dBpa = N[C@H](Cc1ccc(C(=O)c2ccccc2)cc1)C(=O)O; dCha = N[C@H](CC1CCCCC1)C(=O)O

Key:
Jurkat cells [1] = assay: G2 checkpoint abrogation, bleomycin treated Jurkat cells, flow cytometry; type: cell-based, human; settings: for G2 checkpoint abrogating activity: bleomycin treated Jurkat cells
Description: Cell-Cycle Analysis The cell cycle status of the cells treated with bleomycin or adriamcin were analyzed by flow cytometry as described by Kawabe (1997) Nature 385:454-458. In brief, two million cells were re-suspended and incubated in 200 μl Krishan's solution (0.1% Sodium citrate, 50 μg/ml PI, 20 μg/ml RNase A and 0.5% NP-40) for 1 hr at 4° C. and analyzed by a flow cytometry, FACScan™ (Beckton Dickinson, Mountain View, Calif.) with the program CELLQuest™ (Beckton Dickinson).
Flow cytometry analysis of G2 checkpoint abrogation was performed using human leukemia derived Jurkat cell line. In brief, cultured cells were treated with various doses of peptide/peptidomimetic and 40 μg/ml bleomycine for 24 hr. The DNA of the cells was stained with propidium iodide and analyzed by flow cytometry.
(§1) The “Appearance of side effect when used alone” indicates the peptide/peptidomimetic dose that produced Jurkat cell cycle disturbance, i.e., the appearance of significant amounts of SubG1 cells (dead cells) or cells in which the DNA content of each varies more than usual. […] The “G2 abrogating dose” indicates the peptide/peptidomimetic dose with 40 μg/ml bleomycine that produced detectable G2 checkpoint abrogation activity following treatment for 24 hours. The “Appearance of side effect when used with colchicine” indicates the peptide/peptidomimetic dose with 5 μg/ml colchicine that produced Jurkat cell cycle disturbance following treatment for 24 hours.
(§2) A comparison between G2 checkpoint abrogating activity and non specific toxicity (M checkpoint abrogation) by CB501 was performed. In brief, Jurkat cells were treated with 40 μg/ml bleomycin or 0.5 μg/ml colchicine for G2 checkpoint abrogating activity and non specific toxicity, respectively. The DNA amount in each of the treated cells was analyzed by flow cytometry, as previously described.

[2] = tested on: CBP501-sensitive tumor cells; settings: cited from earlier work
HUVEC cells = assay: G2 checkpoint abrogation by CBP501 combined with cis-platin in various cell lines; type: cell-based, human; settings: cis-platin 3 μg/ml, 3 hr, then 45 hr
Description: The medium was aspirated, fresh medium without these compounds was added and the cells were incubated for an additional 45 hr. The cells including floating cells were harvested using trypsin-EDTA solution, incubated with Krishan's solution and analyzed for DNA content by flow cytometry as previously described.

MIAPaCa2 = assay: Sub-G1 (dead cell) analysis of MIAPaCa2 treated with bleomycin or adriamycin; type: cell-based, human; settings: bleomycine 10 μg/ml or adriamycin 1 μg/ml, 3 hours, then 21 hours
Description: The G2 checkpoint abrogating activity of various compounds at different doses on human pancreatic cancer derived cell line MIAPaCa2 treated with bleomycine (Bleo) or adriamycin (ADR) was studied. Briefly, cells were incubated with the compounds and bleomycine (10 μg/ml) or adriamycin (1 μg/ml) for 3 hours. The medium was changed and incubated for an additional 21 hours. Harvested cells were stained for DNA by propium iodide and analyzed with flow cytometry as previously described. The % of the sub-G1 cell population is indicated as dead cells in FIG. 3.

[3] = tested on: MIAPaCa2 human pancreatic carcinoma; assay: MIAPaCa2 subcutaneous tumor in scid mice; type: in vivo, mouse
Description: To study in vivo efficacy of the compounds, MIAPaCa2 human pancreatic carcinoma cells were implanted subcutaneously in scid mice. The treatment was initiated when the size of the primary tumor became 0.1 cm3 (Day0) or larger, e.g., 7 or 8 mm in diameter. CDDP (3 mg/kg) and CBP 501 (10 or 40 mg/kg) were intra-peritoneally administered alone or in combination. Tumor sizes were measured using calipers three times a week, and volumes were calculated using the formula: weight(mg)=[width (mm)2×length (mm)]/2. Mean tumor sizes for each treatment group are plotted (n=4) against the days after the start of treatment (FIG. 10).

HUVEC = assay: Growth of normal human umbilical endothelial cells; type: cell-based
Description: Similar studies were performed using normal human umbilical endothelial cells (HUVEC).

[4] = tested on: MIAPaCa2 human pancreatic carcinoma cells; assay: Colony formation analysis of MIAPaCa2 cells; settings: CBP501 10 μM, cisplatin or oxaliplatin 1, 3 or 9 μg/ml, 3 hours, 10 days
Description: Briefly, cells were plated at 300 cells/well in 6 well plates, incubated overnight, and treated with the compounds for three hours. The medium was changed and cultured for an additional 10 days. Cells were subsequently fixed with 70% methanol, stained with 0.1% crystal violet and visualized.

Jurkat cells [5] = assay: M phase checkpoint abrogation / non specific toxicity, colchicine treated Jurkat cells; type: cell-based
Description: Flow cytometry analysis of M phase checkpoint abrogation by the compounds was performed using human T cell leukemia Jurkat cell line treated with colchicine (5 μg/ml or 0.5 μg/ml) and various doses of peptide/peptidomimetics for 24 hr (FIG. 12). The DNA of the cells was stained and analyzed by flow cytometry as described above.
as §1, §2

non-squamous NSCLC = assay: Phase II randomized study, cisplatin and pemetrexed with or without CBP501; type: in vivo, human; settings: for Hazard Ratio OS: Arm A vs Arm B
Description: Clinical Study Design: Open-label, multicenter, phase II randomized, two-arm, comparative study. The protocol evaluated full-dose cisplatin and pemetrexed with or without CBP501. […] Randomization was stratified according to baseline stage of disease (IIIb vs IV), presence of brain metastasis and whether or not patients were eligible for bevacizumab therapy.
A cycle was considered to be 3 weeks (21 days).
3. Cisplatin 75 mg/m^2 was administered as a 1-hour i.v. infusion immediately after the pemetrexed infusion.
Cox proportional hazards model was employed to estimate the hazard ratio (HR) for PFS between the 2 treatment arms. The model included the treatment arm as a factor as well as the randomization stratification factors. The following covariates were explored: age, gender, race (Caucasian/non-Caucasian), prior surgery/procedure (yes/no), prior radiotherapy (yes/no), x-ray interpretation (normal/abnormal), ECG interpretation (normal/abnormal), bone scan (normal/abnormal), and time from diagnosis. Any continuous variables such as age and time from diagnosis to study treatment could have been converted into categorical variables by specifying 2 or several classes of values if a better model fit would result. The exploratory variables were entered using a stepwise regression algorithm using the following criteria: a variable must be significant at the 0.25 level to be entered into the model and significant at 0.15 level to remain in the model. For the final model, the point estimate of the hazard ratios were provided along with 95% CIs.
Subgroup analyses were conducted for patients that had […] at screening. Additional subgroup analysis was performed with a software GraphPad Prism 5 with raw data on each patients analyzed.

M1 and M2 macrophages = assay: Phagocytic activity of M1 and M2 macrophages, fluorescent beads; type: cell-based, human
Description: Referring to FIG. 19, macrophages were obtained by stimulating human peripheral blood mononuclear cells by 0.32 uM of PMA and removing all suspension cells 48 hours of PMA stimulation. The cells were further incubated with 50 ng/ml IFN-gamma, 10 ng/ml LPS to obtain M1 phenotype, and 20 ng/ml IL-4 to obtain M2 macrophages. Both treatment was with or without CBP501. The phagocytic activity was monitored by using fluorescent labelled beads and flow cytometry.

[6] = cited from earlier work
[7] = Mouse serum treatment analysis, residual CBP501 quantity by HPLC; type: in vitro ADME; settings: mouse serum (table title), 37 degree

(d-Arg)(d-Arg)(d-Arg)(d-Bpa)(d-Arg)(d-Trp)(d-Arg)(d-Phe-2,3,4,5,6-F)(d-Cha) ([dR][dR][dR][dBpa][dR][dW][dR][dPhe(F5)][dCha]) [CBP701]
G2 checkpoint abrogating activity (Jurkat cells [1]): retain G2 checkpoint abrogating activity comparable to other peptides having significant G2 checkpoint abrogating activity

(d-Arg)(d-Arg)(d-Arg)(d-Bpa)(d-Arg)(d-Arg)(d-Arg)(d-Phe-2,3,4,5,6-F)(d-Cha) ([dR][dR][dR][dBpa][dR][dR][dR][dPhe(F5)][dCha]) [CBP703]
G2 checkpoint abrogating activity (Jurkat cells [1]): retain G2 checkpoint abrogating activity comparable to other peptides having significant G2 checkpoint abrogating activity

(d-Arg)(d-Arg)(d-Arg)(d-Arg)(d-Bpa)(d-Arg)(d-Trp)(d-Arg)(d-Phe-2,3,4,5,6-F)(d-Cha) ([dR][dR][dR][dR][dBpa][dR][dW][dR][dPhe(F5)][dCha]) [CBP702]
G2 checkpoint abrogating activity (Jurkat cells [1]): retain G2 checkpoint abrogating activity comparable to other peptides having significant G2 checkpoint abrogating activity

N=C(N)NCCC[C@@H](NC(=O)[C@@H](CCCNC(=N)N)NC(=O)[C@@H](CCC(N)=O)NC(=O)[C@@H](CCCNC(=N)N)NC(=O)[C@@H](CCCNC(=N)N)NC(=O)[C@@H](CCCNC(=N)N)NC(=O)[C@@H](CC1CCCCC1)NC(=O)[C@@H](Cc1c(F)c(F)c(F)c(F)c1F)NC(=O)[C@@H](CO)NC(=O)[C@@H](Cc1c[nH]c2ccccc12)NC(=O)[C@@H](CO)NC(=O)[C@H](N)Cc1ccc(C(=O)c2ccccc2)cc1)C(=O)O [CBP501, (d-Bpa)(d-Ser)(d-Trp)(d-Ser)(d-Phe-2,3,4,5,6-F)(d-Cha)(d-Arg)(d-Arg)(d-Arg)(d-Gln)(d-Arg)(d-Arg)] (H-[dBpa][dS][dW][dS][dPhe(F5)][dCha][dR][dR][dR][dQ][dR][dR]-OH; N-terminus and C-terminus assumed)
Platinum concentration and platinum-DNA adduct formation [2]: increase platinum concentration and platinum-DNA adduct formation | Dose up to which HUVEC cells were not sensitized to cisplatin (HUVEC cells): > 50 µM | Sensitization to DNA damaging agents (% sub-G1 cells) (MIAPaCa2): sensitized MIAPaCa2 cells to both bleomycin and adriamycin in a dose dependent manner | Tumor growth, treatment alone ([3]; CBP501 10 or 40 mg/kg intra-peritoneally): suppresses the growth of human pancreatic cancer cell in vivo | Tumor growth, combination with cisplatin ([3]; CDDP 3 mg/kg and CBP501 10 or 40 mg/kg intra-peritoneally): increased the anti-tumor activity of cisplatin | Effect on growth of normal cells (HUVEC): does not affect the growth of HUVEC cells | Effect on cyto-toxic activity of platinum drugs, colony formation [4]: enhanced the cyto-toxic activity of both cisplatin and oxaliplatin | Effect on M phase cell cycle arrest induced by colchicine (Jurkat cells [5]): does not affect M phase cell cycle arrest and/or non specific toxicity induced by colchicine | Dose up to which non specific toxicity (M checkpoint abrogation) was absent (Jurkat cells [5]; 0.5 μg/ml colchicine): > 50 µM | Hazard Ratio OS (non-squamous NSCLC; ALL treated, exploring other covariates): 0.77 | Hazard Ratio OS (non-squamous NSCLC; ALL treated, without exploring other covariates): 0.96 | Hazard Ratio OS (non-squamous NSCLC; WBC <10000/μL at screening, exploring other covariates): 0.69 | Hazard Ratio OS (non-squamous NSCLC; WBC <10000/μL at screening, without exploring other covariates): 0.80 | Survival benefit from addition to pemetrexed plus cisplatin (non-squamous NSCLC; all treated population): no statistically significant survival benefit | Survival benefit from addition to pemetrexed plus cisplatin (non-squamous NSCLC; sub-group with normal or low WBC at screening): provided a benefit | G2 checkpoint abrogating activity (Jurkat cells [1]): abrogated in a dose dependent manner | Phagocytosis of macrophages in vitro (M1 and M2 macrophages): inhibited phagocytosis of both M1 and M2 macrophages | Dose limiting allergic reactions (grade 3) ([6]; CBP501 36.4 mg/m^2 and cisplatin 75 mg/m^2): two out of six patients experienced allergic reactions | MTD in patients ([6]; in combination with cisplatin 75 mg/m^2, once every 21 days): 24.3 mg/m^2 | Residual peptide after 1 hr serum treatment [7]: >90%

N=C(N)NCCC[C@H](NC(=O)CNC(=O)[C@@H](N)Cc1ccc(O)cc1)C(=O)N[C@@H](CCCCN)C(=O)N[C@@H](CCCCN)C(=O)N[C@@H](CCCNC(=N)N)C(=O)N[C@@H](CCCNC(=N)N)C(=O)N[C@@H](CCC(N)=O)C(=O)N[C@@H](CCCNC(=N)N)C(=O)N[C@@H](CCCNC(=N)N)C(=O)N[C@@H](CCCNC(=N)N)C(=O)N[C@@H](CC1CCCCC1)C(=O)N[C@@H](Cc1c(F)c(F)c(F)c(F)c1F)C(=O)N[C@@H](CCCNC(=N)N)C(=O)N[C@@H](CO)C(=O)N1CCC[C@H]1C(=O)N[C@@H](CO)C(=O)N[C@@H](Cc1ccc(O)cc1)C(=O)N[C@@H](Cc1ccc(O)cc1)C(=O)O [CBP413, (l-Tyr)(l-Gly)(l-Arg)(l-Lys)(l-Lys)(l-Arg)(l-Arg)(l-Gln)(l-Arg)(l-Arg)(l-Arg)(l-Cha)(l-Phe-2,3,4,5,6-F)(l-Arg)(l-Ser)(l-Pro)(l-Ser)(l-Tyr)(l-Tyr)]
G2 abrogating dose (Jurkat cells [1]; with 40 μg/ml bleomycine, 24 hours): ≧1.56 μM

(d-Arg)(d-Arg)(d-Bpa)(d-Arg)(d-Arg)(d-Arg)(d-Phe-2,3,4,5,6-F)(d-Cha) ([dR][dR][dBpa][dR][dR][dR][dPhe(F5)][dCha]) [CBP700]
G2 checkpoint abrogating activity (Jurkat cells [1]): retain G2 checkpoint abrogating activity comparable to other peptides having significant G2 checkpoint abrogating activity
